Measurements reported in the NIST ThermoML archive (doi:10.1021/je300873x).
Numbers after ± are expanded uncertainties.

Test: mn = molality of the nth substance listed, in mol/kg
Settings: for surface tension liquid-gas: Pendant drop shape; for electrical conductivity: Liquid, Digital conductivity meter

CCCCCCCCCCCCCCCC[N+](C)(CCO)CCO.[Br-] [hexadecyl- di(2-hydroxyethyl)-methylazanium bromide] + O
Settings | electrical conductivity [S/m] | surface tension liquid-gas [mN/m]
298.15 K, m1 = 0.00011 | – | 64.14 ± 0.58
298.15 K, m1 = 0.00021 | – | 58.32 ± 0.53
298.15 K, m1 = 0.00032 | – | 52.91 ± 0.49
298.15 K, m1 = 0.00042 | – | 47.72 ± 0.45
298.15 K, m1 = 0.00053 | – | 44.77 ± 0.43
298.15 K, m1 = 0.00056 | 0.0055 ± 0.0001 | –
298.15 K, m1 = 0.00058 | 0.0057 ± 0.0001 | –
298.15 K, m1 = 0.0006 | 0.0059 ± 0.0001 | –
298.15 K, m1 = 0.00063 | 0.0062 ± 0.0001 | 41.55 ± 0.4
298.15 K, m1 = 0.00065 | 0.0064 ± 0.0001 | –
298.15 K, m1 = 0.00068 | 0.0067 ± 0.0001 | –
298.15 K, m1 = 0.00072 | 0.0069 ± 0.0001 | –
298.15 K, m1 = 0.00074 | – | 38.75 ± 0.38
298.15 K, m1 = 0.00075 | 0.0072 ± 0.0001 | –
298.15 K, m1 = 0.00079 | 0.0073 ± 0.0001 | 38.7 ± 0.38
298.15 K, m1 = 0.00084 | 0.0075 ± 0.0001 | 38.62 ± 0.38
298.15 K, m1 = 0.00089 | 0.0077 ± 0.0001 | 38.55 ± 0.38
298.15 K, m1 = 0.00094 | 0.0078 ± 0.0001 | –
298.15 K, m1 = 0.00095 | – | 38.02 ± 0.37
298.15 K, m1 = 0.001 | 0.0081 ± 0.0001 | –
298.15 K, m1 = 0.00105 | – | 38.11 ± 0.37
298.15 K, m1 = 0.00108 | 0.0083 ± 0.0001 | –
298.15 K, m1 = 0.00116 | 0.0086 ± 0.0001 | 37.87 ± 0.37
298.15 K, m1 = 0.00126 | 0.0089 ± 0.0001 | 37.86 ± 0.37
298.15 K, m1 = 0.00137 | 0.0092 ± 0.0001 | –
298.15 K, m1 = 0.00151 | 0.0094 ± 0.0001 | –
303.15 K, m1 = 0.00032 | 0.0034 ± 0.0001 | –
303.15 K, m1 = 0.00035 | 0.0038 ± 0.0001 | –
303.15 K, m1 = 0.00039 | 0.0042 ± 0.0001 | –
303.15 K, m1 = 0.00043 | 0.0046 ± 0.0001 | –
303.15 K, m1 = 0.0005 | 0.0052 ± 0.0001 | –
303.15 K, m1 = 0.00058 | 0.0061 ± 0.0001 | –
303.15 K, m1 = 0.00063 | 0.0066 ± 0.0001 | –
303.15 K, m1 = 0.00068 | 0.007 ± 0.0001 | –
303.15 K, m1 = 0.00075 | 0.0075 ± 0.0001 | –
303.15 K, m1 = 0.00084 | 0.0081 ± 0.0001 | –
303.15 K, m1 = 0.00094 | 0.0086 ± 0.0001 | –
303.15 K, m1 = 0.001 | 0.0088 ± 0.0001 | –
303.15 K, m1 = 0.00107 | 0.0091 ± 0.0001 | –
303.15 K, m1 = 0.00116 | 0.0094 ± 0.0001 | –
303.15 K, m1 = 0.00125 | 0.0097 ± 0.0001 | –
303.15 K, m1 = 0.00137 | 0.01 ± 0.0001 | –
303.15 K, m1 = 0.0015 | 0.0105 ± 0.0001 | –
308.15 K, m1 = 0.00031 | 0.0037 ± 0.0001 | –
308.15 K, m1 = 0.00035 | 0.004 ± 0.0001 | –
308.15 K, m1 = 0.00038 | 0.0044 ± 0.0001 | –
308.15 K, m1 = 0.00043 | 0.0049 ± 0.0001 | –
308.15 K, m1 = 0.00049 | 0.0057 ± 0.0001 | –
308.15 K, m1 = 0.00058 | 0.0067 ± 0.0001 | –
308.15 K, m1 = 0.00063 | 0.0072 ± 0.0001 | –
308.15 K, m1 = 0.00068 | 0.0078 ± 0.0001 | –
308.15 K, m1 = 0.00075 | 0.0084 ± 0.0001 | –
308.15 K, m1 = 0.00083 | 0.009 ± 0.0001 | –
308.15 K, m1 = 0.00094 | 0.0097 ± 0.0001 | –
308.15 K, m1 = 0.001 | 0.01 ± 0.0001 | –
308.15 K, m1 = 0.00107 | 0.0102 ± 0.0001 | –
308.15 K, m1 = 0.00116 | 0.0106 ± 0.0001 | –
308.15 K, m1 = 0.00125 | 0.0108 ± 0.0001 | –
308.15 K, m1 = 0.00137 | 0.0112 ± 0.0001 | –
308.15 K, m1 = 0.0015 | 0.0117 ± 0.0001 | –
313.15 K, m1 = 0.00058 | 0.0073 ± 0.0001 | –
313.15 K, m1 = 0.0006 | 0.0075 ± 0.0001 | –
313.15 K, m1 = 0.00062 | 0.0078 ± 0.0001 | –
313.15 K, m1 = 0.00065 | 0.0081 ± 0.0001 | –
313.15 K, m1 = 0.00068 | 0.0084 ± 0.0001 | –
313.15 K, m1 = 0.00071 | 0.0088 ± 0.0001 | –
313.15 K, m1 = 0.00075 | 0.009 ± 0.0001 | –
313.15 K, m1 = 0.00079 | 0.0097 ± 0.0001 | –
313.15 K, m1 = 0.00083 | 0.0101 ± 0.0001 | –
313.15 K, m1 = 0.00088 | 0.0105 ± 0.0001 | –
313.15 K, m1 = 0.00094 | 0.0109 ± 0.0001 | –
313.15 K, m1 = 0.001 | 0.0112 ± 0.0001 | –
313.15 K, m1 = 0.00107 | 0.0116 ± 0.0001 | –
313.15 K, m1 = 0.00115 | 0.012 ± 0.0001 | –
313.15 K, m1 = 0.00125 | 0.0124 ± 0.0001 | –
313.15 K, m1 = 0.00136 | 0.0128 ± 0.0001 | –
313.15 K, m1 = 0.0015 | 0.0133 ± 0.0001 | –
318.15 K, m1 = 0.00055 | 0.0075 ± 0.0001 | –
318.15 K, m1 = 0.00058 | 0.0078 ± 0.0001 | –
318.15 K, m1 = 0.0006 | 0.008 ± 0.0001 | –
318.15 K, m1 = 0.00062 | 0.0084 ± 0.0001 | –
318.15 K, m1 = 0.00065 | 0.0087 ± 0.0001 | –
318.15 K, m1 = 0.00068 | 0.0091 ± 0.0001 | –
318.15 K, m1 = 0.00071 | 0.0095 ± 0.0001 | –
318.15 K, m1 = 0.00075 | 0.0099 ± 0.0001 | –
318.15 K, m1 = 0.00079 | 0.0105 ± 0.0001 | –
318.15 K, m1 = 0.00083 | 0.0111 ± 0.0001 | –
318.15 K, m1 = 0.00088 | 0.0116 ± 0.0001 | –
318.15 K, m1 = 0.00093 | 0.0122 ± 0.0001 | –
318.15 K, m1 = 0.001 | 0.0127 ± 0.0001 | –
318.15 K, m1 = 0.00107 | 0.0131 ± 0.0001 | –
318.15 K, m1 = 0.00115 | 0.0135 ± 0.0001 | –
318.15 K, m1 = 0.00125 | 0.0139 ± 0.0001 | –
318.15 K, m1 = 0.00136 | 0.0145 ± 0.0001 | –
318.15 K, m1 = 0.0015 | 0.0152 ± 0.0001 | –
323.15 K, m1 = 0.00055 | 0.008 ± 0.0001 | –
323.15 K, m1 = 0.00057 | 0.0083 ± 0.0001 | –
323.15 K, m1 = 0.0006 | 0.0086 ± 0.0001 | –
323.15 K, m1 = 0.00062 | 0.0089 ± 0.0001 | –
323.15 K, m1 = 0.00065 | 0.0093 ± 0.0001 | –
323.15 K, m1 = 0.00068 | 0.0097 ± 0.0001 | –
323.15 K, m1 = 0.00071 | 0.0101 ± 0.0001 | –
323.15 K, m1 = 0.00075 | 0.0106 ± 0.0001 | –
323.15 K, m1 = 0.00079 | 0.0112 ± 0.0001 | –
323.15 K, m1 = 0.00083 | 0.0117 ± 0.0001 | –
323.15 K, m1 = 0.00088 | 0.0124 ± 0.0001 | –
323.15 K, m1 = 0.00093 | 0.0131 ± 0.0001 | –
323.15 K, m1 = 0.00099 | 0.0137 ± 0.0001 | –
323.15 K, m1 = 0.00107 | 0.0143 ± 0.0001 | –
323.15 K, m1 = 0.00115 | 0.0148 ± 0.0001 | –
323.15 K, m1 = 0.00124 | 0.0154 ± 0.0001 | –
323.15 K, m1 = 0.00136 | 0.0161 ± 0.0001 | –
323.15 K, m1 = 0.00149 | 0.0169 ± 0.0001 | –
